In patent US20240058321A1, “FARNESYL-TRANSFERASE INHIBITORS AND KRAS INHIBITORS FOR TREATING KRAS MUTANT CANCERS” (SEMMELWEIS EGYETEM, priority 2021, published 2024):
Where two headings read alike, the source gives them in different places.

Key:
SW1573 [1] = experiment: siRNA knockdown experiment (SRB, IC50); assay type: cell-based, human; conditions: 6-day-long treatment
Method: Cells were plated in 2500 and 7500 cells/well density (for non-targeting siRNA and HRAS siRNA treatment, respectively) on a 48we11 plate supplemented with pre-mixed Lipofectamine RNAIMAX Reagent (Thermo Fisher) and OptiMEM (Thermo Fisher) containing 2.5 pmol/well non-targeting or HRAS siRNA according to the manufacturer's instruction (reverse transfection protocol). […] On the 3rd day of the treatment, cells were supplemented with fresh pre-mixed 2.5 pmol/well siRNA diluted in Lipofectamine RNAiMAX Reagent and Optimem according to the manufacturer's instruction. […] OD values were normalized to control, and IC50 values were calculated from transformed data using GraphPad PRISM 5 software.

SW1573 spheroids = experiment: 3D spheroid growth test; assay type: cell-based, human
Method: Spheroids were generated using polyHEMA coated 96we11 round bottom plates. Briefly, the inner 60 wells of the plate were coated with 60 μl 5 mg/ml polyHEMA dissolved in 96% ethanol. Plates were dried at 60° C. in a plate shaker while shaking, then sterilized with UV. Cells were seeded at 3000 cells/well density at the inner 60 polyHEMA coated wells in 200 μl medium, while the outer wells were filled with DPBS (Lonza) to avoid evaporation. Plates were then centrifugated at 2000 RPM so that cells would be concentrated at the bottom of the well thus enhancing single spheroid formation. Within 24 hours the cells aggregated into spheroids and were treated by adding further 100 μl medium supplemented with the inhibitors. Each concentration group contained three spheroids. Each spheroid was pictured using a ToupCam XW 3MP microscope-camera on the first and sixth day of the treatment. Before imaging, medium was gently suspended so that unattached or dead cells would be removed from the surface of the spheroids. Images then were analysed using ImageJ software with a modified script of [1]. Briefly, the script measures the area of the 2D projections of the spheroids. Results were manually reviewed, then area values were used to calculate radius and volume of spheroids using the formula V=4/3×π×radius^3. Data are shown as results of three independent experiments.

cancer patients = conditions: cited from earlier work
SW1573 [2] = experiment: 2D combinational test (SRB growth inhibition, six days); conditions: SW1573
Method: (§4) H358, SW1573, H1792, MIAPACA2, SW1990, SNUC2B, SW480, A549 and HCT116 were purchased from ATCC, while SW48 KRAS G12C colorectal cell line and H838 KRAS G12D lung cell line was bought from Horizon Discovery Ltd. Most of the cell lines were heterozygous for mutant KRAS, as in human cases used to occur, but we also used cell lines with homozygous mutant KRAS.
(§5) Cells were cultured in DMEM (Lonza, Switzerland; with 4500 mg/dm3 glucose, pyruvate and L-glutamine) supplemented with 10% fetal calf serum (EuroClone) and 1% penicillin-streptomycin-amphotericin (Lonza) in tissue culture flasks in a humidified 5% CO2 atmosphere at 37° C.
(§6) For in vitro experiments drugs were dissolved in DMSO in 10 mM stock concentration and stored at −80° C.
Cells that reached 70-80% confluency were trypsinized and counted using Luna II Automated Cell Counter. Cells were plated in 5000-10000 cells/well density (depending on the growth rate of the given cell line) on a 24 well plate. Next day the medium was replaced to fresh medium supplemented with the inhibitors. After 6 days, the wells were washed with DPBS (Lonza) and the cells were fixed by 10% trichloroacetic acid and stained with Sulphorodamine-B (SRB) (Sigma) dye for 15 minutes. Plates then were repeatedly washed with 1% acetic acid to remove excess dye. Protein-bound SRB was then dissolved in 10 mM Tris buffer (pH=7,4) and OD was measured at 570 nm using a microplate reader (EL800, BioTec Instruments, Winooski, VT). OD values were normalized to control. Transformed data then were used to calculate combinational index (CI) values using Compusyn software as described in https://www.combosyn.com/index.html. Data shown are results of three independent experiments.

H358 = experiment: as above
Method: as §4, §5, §6
Cells that reached 70-80% confluency were trypsinized and counted using Luna II Automated Cell Counter. Cells were plated in 5000-10000 cells/well density (depending on the growth rate of the given cell line) on a 24 well plate. Next day the medium was replaced to fresh medium supplemented with the inhibitors. After 6 days, the wells were washed with DPBS (Lonza) and the cells were fixed by 10% trichloroacetic acid and stained with Sulphorodamine-B (SRB) (Sigma) dye for 15 minutes. […] Protein-bound SRB was then dissolved in 10 mM Tris buffer (pH=7,4) and OD was measured at 570 nm using a microplate reader (EL800, BioTec Instruments, Winooski, VT). […]

H358 xenografts = experiment: In vivo tumor growth of subcutaneous xenografts; set-up: species or system female SCID mice; conditions: AMG510 5 mg/kg i.p. and/or tipifarnib 40 mg/kg i.p.
Method: (§1) H358 and SW1573 human lung adenocarcinoma cells (5×10^6 and 1×10^6, respectively) were subcutaneously injected in female SCID mice. Cells were injected in 200 μl DMEM:Matrigel mixture (ratio 1:1) based on preliminary experiments. When tumor reached approximately 100 mm^3 (H358 7 days, SW1573 26 days after injection), animals were randomized and treated intraperitoneally daily except for weekends. Drugs were dissolved in 60% DPBS, 34% PEG300, 5% DMSO and 1% Tween80. […] Controls received vehicle. Doses were determined based on previous literature, roughly using half of the used per os doses. The subcutaneous tumors were measured with a caliper and tumor volumes were calculated with the formula […] and expressed in mm^3. H358 experiment was terminated after 18 days and SW1573 after 25 days treatment. Tumors were measured upon harvest, then fixed with 4% PFA for histological analyses.
(§2) Animals were the properties of the Department of Experimental Pharmacology, National Institute of Oncology, H-1122, Budapest, Hungary. All experiments were carried out in accordance with the Guidelines for Animal Experiments and were approved for the Department of Experimental Pharmacology in the National Institute of Oncology, Budapest, Hungary.

SW1573 xenografts = experiment: In vivo tumor growth of subcutaneous xenografts; set-up: species or system female SCID mice; conditions: AMG510 25 mg/kg i.p. and/or tipifarnib 40 mg/kg i.p.
Method: as §1, §2

H838 KRAS G12D = experiment: 2D combinational test (SRB growth inhibition, six days); assay type: cell-based, human
Description: (§3) OD values were normalized to control. […] Data shown are results of three independent experiments.

SNUC2B = experiment: as above; assay type: cell-based, human
Description: as §3

SW1990 = experiment: as above; assay type: cell-based, human; conditions: SW1990
Description: as §3

PF906 = experiment: as above; assay type: cell-based, human
Description: as §3

HCT116 = experiment: as above; assay type: cell-based, human
Description: as §3

SW480 = experiment: as above; assay type: cell-based, human
Description: as §3

A549 = experiment: as above; assay type: cell-based, human
Description: as §3

[3] = (day 1 = 1), animal 1, in g (unit assumed)
[4] = (day 1 = 1), animal 3, in g (unit assumed)
[5] = (day 1 = 1), animal 4, in g (unit assumed)
[6] = (day 1 = 1), animal 6, in g (unit assumed)
[7] = (day 1 = 1), animal 7, in g (unit assumed)
[8] = (day 1 = 1), group mean, in g (unit assumed)
[9] = concentration range of 1-20 μM, data not shown
[10] = 0 nM tipifarnib + 25 nM MRTX1133
[11] = 0 nM tipifarnib + 125 nM MRTX1133
[12] = 0 nM tipifarnib + 625 nM MRTX1133

sotorasib [AMG510]
IC50 (SW1573 [1]; Cont (non-targeting) siRNA): 100 nM | IC50 (SW1573 [1]; HRAS siRNA): 51.7 nM | Drug sensitivity in 3D compared to 2D settings (SW1573 spheroids): higher sensitivity | Clinical efficacy in monotherapy (cancer patients; LUAD patients): good efficacy | Clinical efficacy in monotherapy (cancer patients; colorectal cancer patients): relatively less effective | Clinical toxicity (cancer patients; tested clinically): without rate limiting toxicities | Sensitivity to treatment in 2D in vitro experiments (SW1573 [2]): resistant | Sensitivity to treatment in 2D in vitro experiments (H358): highly sensitive | Weights of the tumors at the end of the experiment (H358 xenografts; [3]): 0.053 | Weights of the tumors at the end of the experiment (H358 xenografts; (day 1 = 1), animal 2, in g (unit assumed)): 0.559 | Weights of the tumors at the end of the experiment (H358 xenografts; [4]): 0.038 | Weights of the tumors at the end of the experiment (H358 xenografts; [5]): 0.157 | Weights of the tumors at the end of the experiment (H358 xenografts; [6]): 0.254 | Weights of the tumors at the end of the experiment (H358 xenografts; [7]): 0.029 | Weights of the tumors at the end of the experiment, MEAN (H358 xenografts; [8]): 0.1817 | Inhibition of tumor growth (in words) (H358 xenografts; daily except weekends): effectively inhibited tumors | Weights of the tumors at the end of the experiment (SW1573 xenografts; [3]): 0.1025 | Weights of the tumors at the end of the experiment (SW1573 xenografts; [4]): 0.7238 | Weights of the tumors at the end of the experiment (SW1573 xenografts; [5]): 0.2227 | Weights of the tumors at the end of the experiment (SW1573 xenografts; (day 1 = 1), animal 5, in g (unit assumed)): 0.144 | Weights of the tumors at the end of the experiment (SW1573 xenografts; [6]): 0.5804 | Weights of the tumors at the end of the experiment (SW1573 xenografts; [7]): 0.4184 | Weights of the tumors at the end of the experiment, MEAN (SW1573 xenografts; [8]): 0.3653 | Inhibition of tumor growth (in words) (SW1573 xenografts; daily except weekends): effectively inhibited tumors

Cc1nc[nH]c1CN1CCN(C(=O)N[C@@H](CC(C)C)C(=O)O)[C@@H](Cc2ccccc2)C1=O [GGTI-2418]
Effect on tumor cell proliferation (in words) (SW1573 [2]; [9]): ineffective | Effect on tumor cell proliferation (in words) (H358; [9]): ineffective

C#Cc1c(F)ccc2cc(O)cc(-c3ncc4c(N5CC6CCC(C5)N6)nc(OC[C@@]56CCCN5C[C@H](F)C6)nc4c3F)c12 [MRTX1133]
Relative cell viability (MEAN) (H838 KRAS G12D; [10]): 0.8997 | Relative cell viability (MEAN) (H838 KRAS G12D; [11]): 0.7955 | Relative cell viability (MEAN) (H838 KRAS G12D; [12]): 0.6909 | Relative cell viability (MEAN) (SNUC2B; 0 nM tipifarnib + 50 nM MRTX1133): 0.739 | Relative cell viability (MEAN) (SNUC2B; 0 nM tipifarnib + 100 nM MRTX1133): 0.7023 | Relative cell viability (MEAN) (SNUC2B; 0 nM tipifarnib + 500 nM MRTX1133): 0.6567 | Relative cell viability (MEAN) (SW1990; 0 nM lonafarnib + 2.5 nM MRTX1133): 0.848 | Relative cell viability (MEAN) (SW1990; 0 nM lonafarnib + 5 nM MRTX1133): 0.7005 | Relative cell viability (MEAN) (SW1990; 0 nM lonafarnib + 10 nM MRTX1133): 0.5543 | Relative cell viability (MEAN) (SW1990; 0 nM tipifarnib + 2.5 nM MRTX1133): 0.7355 | Relative cell viability (MEAN) (SW1990; 0 nM tipifarnib + 5 nM MRTX1133): 0.5922 | Relative cell viability (MEAN) (SW1990; 0 nM tipifarnib + 10 nM MRTX1133): 0.4549 | Relative cell viability (MEAN) (PF906; [10]): 0.716 | Relative cell viability (MEAN) (PF906; [11]): 0.625 | Relative cell viability (MEAN) (PF906; [12]): 0.574

Cn1cnc(Cn2ccc3ccc(CNCc4[nH]c5ccccc5c4[C@H]4NC(=O)c5ccc(O)cc54)cc32)c1 [BI2852]
Relative cell viability (MEAN) (HCT116; 0 nM TIPIFARNIB + 10 μM BI2852): 0.846 | Relative cell viability (MEAN) (HCT116; 0 nM TIPIFARNIB + 20 μM BI2852): 0.7086 | Relative cell viability (MEAN) (HCT116; 0 nM TIPIFARNIB + 30 μM BI2852): 0.5907 | Relative cell viability (MEAN) (SW480; 0 nM lonafarnib + 15 μM BI2852): 0.8064 | Relative cell viability (MEAN) (SW480; 0 nM lonafarnib + 20 μM BI2852): 0.6712 | Relative cell viability (MEAN) (SW480; 0 nM lonafarnib + 30 μM BI2852): 0.3888 | Relative cell viability (MEAN) (SW480; 0 nM tipifarnib + 5 μM BI2852): 0.9312 | Relative cell viability (MEAN) (SW480; 0 nM tipifarnib + 10 μM BI2852): 0.7461 | Relative cell viability (MEAN) (SW480; 0 nM tipifarnib + 15 μM BI2852): 0.5371 | Relative cell viability (MEAN) (A549; 0 nM TIPIFARNIB + 20 μM BI2852): 0.9541 | Relative cell viability (MEAN) (A549; 0 nM TIPIFARNIB + 30 μM BI2852): 0.8484 | Relative cell viability (MEAN) (A549; 0 nM TIPIFARNIB + 40 μM BI2852): 0.7576 | Relative cell viability (MEAN) (SNUC2B; 0 nM tipifarnib + 10 μM BI2852): 0.8372 | Relative cell viability (MEAN) (SNUC2B; 0 nM tipifarnib + 20 μM BI2852): 0.7477 | Relative cell viability (MEAN) (SNUC2B; 0 nM tipifarnib + 30 μM BI2852): 0.664 | Relative cell viability (MEAN) (SW1990; 0 nM tipifarnib + 10 μM BI2852): 0.9287 | Relative cell viability (MEAN) (SW1990; 0 nM tipifarnib + 20 μM BI2852): 0.8554 | Relative cell viability (MEAN) (SW1990; 0 nM tipifarnib + 30 μM BI2852): 0.8187
